SMILES strings stand for the structures. Calls of active or inactive are those of the source. The calls are words filed in the database; no cut-off is given here.

Test [1] concerns ONS-76. The experiment in a line: Cytotoxicity against human ONS-76 cells assessed as reduction in cell viability incubated for 72 hrs by MTT assay. The conditions noted are these: ONS-76, 72 h. It counts as functional, cell-based. (Tetrazolium assays rely on reduction of a dye to a coloured formazan, in cell work by metabolically active cells.)
Test [2] relates to Daoy. The experiment in a line: Cytotoxicity against human DAOY cells assessed as reduction in cell viability incubated for 72 hrs by MTT assay. It counts as functional, cell-based.
For test [3], the target named is T1, Aurora kinase A (Homo sapiens) (UniProt O14965).
T1 sequence (whole entry): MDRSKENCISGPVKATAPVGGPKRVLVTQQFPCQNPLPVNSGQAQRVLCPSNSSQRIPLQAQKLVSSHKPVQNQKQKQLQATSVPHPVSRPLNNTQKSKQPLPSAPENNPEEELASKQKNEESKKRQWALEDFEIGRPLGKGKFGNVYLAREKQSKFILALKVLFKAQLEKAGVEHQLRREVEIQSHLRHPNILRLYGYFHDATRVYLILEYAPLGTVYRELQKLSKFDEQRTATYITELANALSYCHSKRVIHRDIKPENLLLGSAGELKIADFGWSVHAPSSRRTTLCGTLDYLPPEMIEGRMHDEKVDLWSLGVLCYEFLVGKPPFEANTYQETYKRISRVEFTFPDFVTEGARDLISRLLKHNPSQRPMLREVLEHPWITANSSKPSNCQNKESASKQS
In words: Inhibition of Aurora A (unknown origin) at 100 uM relative to control.

For test [4], the target named is Insulin-like growth factor 1 receptor (Homo sapiens) (UniProt P08069). In words: Inhibition of IGF-1R (unknown origin) at 100 uM.
Sequence of Insulin-like growth factor 1 receptor (Homo sapiens) (P08069 31-736 limits assumed): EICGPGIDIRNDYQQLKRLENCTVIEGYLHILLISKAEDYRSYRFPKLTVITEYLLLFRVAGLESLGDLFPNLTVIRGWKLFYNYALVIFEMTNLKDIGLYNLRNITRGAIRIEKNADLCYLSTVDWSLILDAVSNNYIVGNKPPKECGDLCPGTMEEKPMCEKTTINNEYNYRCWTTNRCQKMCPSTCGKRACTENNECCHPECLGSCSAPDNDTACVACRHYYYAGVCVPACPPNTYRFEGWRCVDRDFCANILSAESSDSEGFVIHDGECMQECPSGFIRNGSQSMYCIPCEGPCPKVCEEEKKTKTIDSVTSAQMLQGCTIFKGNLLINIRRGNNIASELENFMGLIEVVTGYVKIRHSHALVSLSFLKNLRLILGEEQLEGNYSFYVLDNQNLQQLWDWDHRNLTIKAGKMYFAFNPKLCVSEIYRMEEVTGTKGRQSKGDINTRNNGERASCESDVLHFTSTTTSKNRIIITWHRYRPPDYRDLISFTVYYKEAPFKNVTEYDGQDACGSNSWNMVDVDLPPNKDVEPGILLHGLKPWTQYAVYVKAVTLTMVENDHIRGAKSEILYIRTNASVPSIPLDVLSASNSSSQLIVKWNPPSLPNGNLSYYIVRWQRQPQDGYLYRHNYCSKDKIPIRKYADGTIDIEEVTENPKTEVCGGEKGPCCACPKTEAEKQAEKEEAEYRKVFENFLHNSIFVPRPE
Sequence of Insulin-like growth factor 1 receptor (Homo sapiens) (P08069 741-1367 limits assumed): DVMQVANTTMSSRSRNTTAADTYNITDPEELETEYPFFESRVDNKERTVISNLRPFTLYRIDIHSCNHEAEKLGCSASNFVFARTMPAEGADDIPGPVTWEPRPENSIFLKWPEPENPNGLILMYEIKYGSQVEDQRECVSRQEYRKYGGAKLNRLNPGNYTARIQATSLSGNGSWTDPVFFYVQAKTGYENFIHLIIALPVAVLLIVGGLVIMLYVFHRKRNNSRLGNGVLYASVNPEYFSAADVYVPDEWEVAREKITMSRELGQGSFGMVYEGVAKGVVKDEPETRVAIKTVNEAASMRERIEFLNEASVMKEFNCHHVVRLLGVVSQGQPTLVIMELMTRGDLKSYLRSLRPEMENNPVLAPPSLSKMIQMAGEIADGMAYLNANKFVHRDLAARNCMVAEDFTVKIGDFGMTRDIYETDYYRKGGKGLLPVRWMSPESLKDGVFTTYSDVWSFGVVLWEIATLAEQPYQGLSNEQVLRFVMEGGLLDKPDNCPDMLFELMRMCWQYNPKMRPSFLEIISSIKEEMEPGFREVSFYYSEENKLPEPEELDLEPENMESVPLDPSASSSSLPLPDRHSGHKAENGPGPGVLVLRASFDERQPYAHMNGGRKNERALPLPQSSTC
The target in test [5] is Vascular endothelial growth factor receptor 2 (Homo sapiens) (UniProt P35968). The experiment in a line: Inhibition of VEGFR2 (unknown origin) at 100 uM.
Sequence of Vascular endothelial growth factor receptor 2 (Homo sapiens) (P35968 whole entry): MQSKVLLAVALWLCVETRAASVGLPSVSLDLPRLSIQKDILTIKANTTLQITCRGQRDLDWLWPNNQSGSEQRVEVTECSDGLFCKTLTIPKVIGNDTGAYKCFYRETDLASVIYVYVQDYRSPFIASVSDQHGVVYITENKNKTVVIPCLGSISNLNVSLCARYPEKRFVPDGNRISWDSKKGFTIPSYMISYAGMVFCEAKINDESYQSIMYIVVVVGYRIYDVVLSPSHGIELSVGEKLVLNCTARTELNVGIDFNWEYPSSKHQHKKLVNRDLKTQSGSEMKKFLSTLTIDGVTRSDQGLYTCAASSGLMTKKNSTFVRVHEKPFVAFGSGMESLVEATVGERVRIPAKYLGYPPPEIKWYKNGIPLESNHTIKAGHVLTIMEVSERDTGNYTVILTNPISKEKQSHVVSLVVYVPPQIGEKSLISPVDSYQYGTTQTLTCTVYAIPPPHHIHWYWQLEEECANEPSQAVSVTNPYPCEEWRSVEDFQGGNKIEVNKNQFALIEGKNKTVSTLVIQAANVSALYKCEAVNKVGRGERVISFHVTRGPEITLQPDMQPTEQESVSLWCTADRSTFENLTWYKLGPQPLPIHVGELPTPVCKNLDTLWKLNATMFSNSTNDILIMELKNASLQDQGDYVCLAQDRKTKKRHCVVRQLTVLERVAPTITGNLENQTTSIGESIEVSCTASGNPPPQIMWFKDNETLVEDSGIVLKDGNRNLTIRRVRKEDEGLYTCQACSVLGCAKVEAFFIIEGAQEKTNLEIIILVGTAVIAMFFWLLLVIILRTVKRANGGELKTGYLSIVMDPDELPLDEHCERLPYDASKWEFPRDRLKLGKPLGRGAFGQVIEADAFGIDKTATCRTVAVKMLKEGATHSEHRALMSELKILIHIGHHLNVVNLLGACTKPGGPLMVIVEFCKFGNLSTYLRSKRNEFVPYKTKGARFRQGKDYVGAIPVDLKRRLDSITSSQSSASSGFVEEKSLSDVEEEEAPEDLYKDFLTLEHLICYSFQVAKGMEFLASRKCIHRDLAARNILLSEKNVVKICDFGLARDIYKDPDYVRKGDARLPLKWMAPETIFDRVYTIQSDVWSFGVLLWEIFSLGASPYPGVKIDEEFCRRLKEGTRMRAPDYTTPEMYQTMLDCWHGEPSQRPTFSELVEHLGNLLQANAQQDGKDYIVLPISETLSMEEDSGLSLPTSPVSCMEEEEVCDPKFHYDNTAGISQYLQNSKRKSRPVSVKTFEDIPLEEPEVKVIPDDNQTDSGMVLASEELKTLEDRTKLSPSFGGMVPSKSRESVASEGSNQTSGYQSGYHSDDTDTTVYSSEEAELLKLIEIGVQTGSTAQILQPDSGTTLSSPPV
The subject of test [6] is Daoy. In words: Potency index, ratio of 1-(naphthalen-1-yl)-3-(3,4,5-trimethoxyphenyl)urea IC50 to test compound IC50 for cytotoxicity against human DAOY cells assessed as reduction in cell viability incubated for 72 hrs by MTT assay. It counts as functional.
The subject of test [7] is ONS-76. In words: Potency index, ratio of 1-(naphthalen-1-yl)-3-(3,4,5-trimethoxyphenyl)urea IC50 to test compound IC50 for cytotoxicity against human ONS-76 cells assessed as reduction in cell viability incubated for 72 hrs by MTT assay. It counts as functional.
For test [8], the target named is Cyclin-dependent kinase 2 (Homo sapiens) (UniProt P24941). In words: Inhibition of CDK2 (unknown origin) at 100 uM.

The term IC50 denotes the midpoint of a concentration-inhibition curve. With `COc1ccc(N(C)C(=O)N(C)c2cc(OC)c(OC)c(OC)c2)cc1`, the IC50 in test [1] and in test [2] was at least 125 µM in each case.
Take `COc1cc(N(C)C(=O)c2ccccc2)cc(OC)c1OC`: the IC50 in test [1] and in test [2] was at least 125 µM in each case.
For the compound `COc1cc(N(C)C(=O)N(C)c2ccc(F)cc2)cc(OC)c1OC`, the IC50 in test [1] and in test [2] was at least 125 µM in each case.
As usually defined, the inhibition is how much of the control response was suppressed. Compound `COc1cc(NC(=O)Nc2ccc(O)c3ccccc23)cc(OC)c1OC` registered an inhibition in test [3] of 30%. The inhibition result in test [4], in test [5] and in test [8] was “inactive” each time. In addition, the 50% inhibitory concentration (IC50) in test [1] was 2.5 µM; in test [2], 0.1 µM. Further, the “Ratio IC50” value in test [6] turned out to be 58.4; in test [7], 0.98.
As for `COc1cc(NC(=O)Nc2cccc(F)c2)cc(OC)c1OC`, the IC50 in test [1] was 65.5 µM; in test [2], 111 µM.
On to `COc1cc(NC(=O)Nc2cccc3cc(O)ccc23)cc(OC)c1OC`, for which the IC50 in test [1] and in test [2] was at least 125 µM in each case.
On to `COc1cc(N(C)C(=O)c2ccc(F)cc2)cc(OC)c1OC`, for which the IC50 in test [1] and in test [2] was at least 125 µM throughout.
Take `COc1cc(NC(=O)Nc2cccc([N+](=O)[O-])c2)cc(OC)c1OC`: the IC50 in test [1] was 79.6 µM; in test [2] it was 82.5 µM.
In the case of `COc1ccc(NC(=O)Nc2cc(OC)c(OC)c(OC)c2)cc1`, the IC50 in test [1] was 12.9 µM; in test [2], 14.8 µM.
`COc1cc(NC(=O)c2ccc(F)cc2)cc(OC)c1OC`: the 50% inhibitory concentration (IC50) in test [1] and in test [2] was at least 125 µM each time.
For the compound `COc1ccc(C(=O)N(C)c2cc(OC)c(OC)c(OC)c2)cc1`, the concentration for half-maximal inhibition (IC50) in test [1] and in test [2] was at least 125 µM throughout.
With `COc1cc(NC(=O)Nc2cccc3ccccc23)cc(OC)c1OC`, the IC50 in test [1] stood at 2.45 µM; in test [2] it was 5.84 µM.
Turning to `COc1cc(N(C)C(=O)N(C)c2cccc(F)c2)cc(OC)c1OC`, the IC50 in test [1] and in test [2] was at least 125 µM throughout.
For `COc1cc(N(C)C(=O)N(C)c2cccc3ccccc23)cc(OC)c1OC`, the half-maximal inhibitory concentration (IC50) in test [1] and in test [2] was at least 125 µM in each case.
With `COc1cc(N(C)C(=O)c2cccc([N+](=O)[O-])c2)cc(OC)c1OC`, the IC50 in test [1] and in test [2] was at least 125 µM throughout.
Take `COc1cc(NC(=O)c2cccc([N+](=O)[O-])c2)cc(OC)c1OC`: the IC50 in test [1] and in test [2] was at least 125 µM in each case.
For the compound `COc1cc(NC(=O)Nc2c3ccccc3cc3ccccc23)cc(OC)c1OC`, the IC50 was 10 µM in test [1] and at least 125 µM in test [2]. Further, the “Ratio IC50” value in test [7] is 0.25.
Consider `COc1cc(NC(=O)Nc2cccc3ncccc23)cc(OC)c1OC`, for which the half-inhibitory concentration (IC50) in test [1] was at least 125 µM; in test [2], 4 µM. Also, the “Ratio IC50” value in test [6] is reported as 1.5.
As to `COc1cc(NC(=O)c2cccc(F)c2)cc(OC)c1OC`, the IC50 in test [1] and in test [2] was at least 125 µM in each case.
As to `COc1cc(N(C)C(=O)c2cccc(F)c2)cc(OC)c1OC`, the IC50 in test [1] and in test [2] was at least 125 µM throughout.
In the case of `COc1cc(NC(=O)c2ccc([N+](=O)[O-])cc2)cc(OC)c1OC`, the IC50 is at least 125 µM in test [1] and 52.9 µM in test [2].
Take `COc1cc(N(C)C(=O)c2cccc3ccccc23)cc(OC)c1OC`: the IC50 in test [1] was 65.7 µM; in test [2], at least 125 µM.
With `COc1cc(NC(=O)Nc2ccc([N+](=O)[O-])cc2)cc(OC)c1OC`, the IC50 was determined as 35 µM in test [1] and 70.8 µM in test [2].
The like results for `COc1cc(NC(=O)Nc2ccc(F)cc2)cc(OC)c1OC` were, in that order, 63.2 µM and 104 µM.
In the case of `COc1cc(NC(=O)Nc2cccc3c2CCC3)cc(OC)c1OC`, the results for the IC50 in test [1] and in test [2] were at least 125 µM and 0.47 µM, respectively. Also, the “Ratio IC50” value in test [6] was found to be 12.4.
Turning to `COc1cc(N(C)C(=O)N(C)c2ccc([N+](=O)[O-])cc2)cc(OC)c1OC`, the IC50 in test [1] and in test [2] was at least 125 µM each time.
On to `COc1cc(N(C)C(=O)N(C)c2cccc([N+](=O)[O-])c2)cc(OC)c1OC`, for which the IC50 in test [1] and in test [2] was at least 125 µM throughout.
For `COc1cc(N(C)C(=O)c2ccc([N+](=O)[O-])cc2)cc(OC)c1OC`, the IC50 in test [1] and in test [2] was at least 125 µM in each case.
With `COc1cc(NC(=O)Nc2ccc3c(ccn3C)c2)cc(OC)c1OC`, the concentration for half-maximal inhibition (IC50) in test [1] is at least 125 µM; in test [2], 0.16 µM. Further, in test [6], the “Ratio IC50” value amounted to 36.5.
For `COc1cc(NC(=O)c2cccc3ccccc23)cc(OC)c1OC`, the IC50 in test [1] turned out to be 26.8 µM; in test [2], 48.7 µM.
For `COc1cc(NC(=O)Nc2cccc3cc[nH]c23)cc(OC)c1OC`, the IC50 in test [1] and in test [2] was at least 125 µM throughout.
`COc1cc(NC(=O)c2ccccc2)cc(OC)c1OC`: the IC50 in test [1] and in test [2] was at least 125 µM in each case.
Take `COc1cc(NC(=O)Nc2cccc3cc4ccccc4cc23)cc(OC)c1OC`: the figures for the IC50 in test [1] and in test [2] were 10 µM and 1.25 µM, respectively. The “Ratio IC50” value in test [6] is 4.7; in test [7] it was 0.25.
Regarding `COc1ccc(C(=O)Nc2cc(OC)c(OC)c(OC)c2)cc1`, the half-inhibitory concentration (IC50) in test [1] and in test [2] was at least 125 µM in each case.

The record behind these values is ChEMBL document CHEMBL4842352, “Novel diarylamides and diarylureas with N-substitution dependent activity against medulloblastoma” (Eur J Med Chem, 2021).
